Results: ChEMBL document CHEMBL1201862, “PubChem BioAssay data set” (2004)
Calls of active or inactive are those of the source.

How the values were obtained:
[1] = molecular target: Disintegrin and metalloproteinase domain-containing protein 17 (Homo sapiens, UniProt P78536); assay: ADAM17 protease inhibitors, dose response, counter-screen for ADAM10 exosite inhibitor project, biochemical, quenched FRET substrate (AID 743253)
[2] = ADAM10 inhibitors, peptide cleavage, dose response, biochemical, QFRET (AID 743254);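 note: ADAM10 enzyme with the DM2 quenched FRET peptide as substrate; EDANS fluorescence gain as the protease cuts the substrate; inhibitor potency against ADAM10 proteolytic activity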
Galanin receptor type 3 = molecular target: T1, Galanin receptor type 3 (Homo sapiens, UniProt O60755); assay: Fluorescence-based cell-based primary high throughput dose response assay to identify antagonists of the Galanin Receptor 3 (GalR3).; type: functional
T1 sequence (O60755 whole entry): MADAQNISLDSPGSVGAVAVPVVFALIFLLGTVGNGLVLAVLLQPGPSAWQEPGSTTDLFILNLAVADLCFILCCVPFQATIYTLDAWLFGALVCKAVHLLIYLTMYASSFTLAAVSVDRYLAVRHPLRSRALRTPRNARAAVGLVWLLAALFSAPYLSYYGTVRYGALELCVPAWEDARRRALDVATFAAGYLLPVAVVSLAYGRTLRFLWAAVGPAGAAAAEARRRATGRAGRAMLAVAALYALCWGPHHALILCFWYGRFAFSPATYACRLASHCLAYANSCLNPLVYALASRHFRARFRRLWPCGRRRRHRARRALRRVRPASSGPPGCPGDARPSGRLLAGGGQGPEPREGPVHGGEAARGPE

Protein Wnt-3a = Protein Wnt-3a (Mus musculus, UniProt P27467); assay: Wnt3a-driven reporter signaling inhibition, dose response, selectivity assay for Gli-SUFU antagonist project, Wnt-LIGHT cells, luminescence (AID 651570); type: functional; conditions: read-out: IC50_Mean;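 note: Wnt-LIGHT reporter cells stimulated with conditioned medium from Wnt3a-producing cells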
[3] = control 3'UTR Renilla luciferase suppression, dose response, counter-screen for Shn3 inhibitor project, cell-based, Clone20-Shn3RL, cherry-picked (AID 624133); type: functional
[4] = HepG2 cell cytotoxicity, dose response, cytotoxicity control for Shn3 inhibitor project, CellTiter-Glo, cherry-picked (AID 624134); type: functional, cell-based
[5] = molecular target: COUP transcription factor 2 (Homo sapiens, UniProt P24468); assay: Luminescence-based cell-based high throughput dose response assay to identify inhibitors of COUP-TFII (NR2F2).; type: functional;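 note: HEK293 cells transiently cotransfected with COUP-TFII expression vector and reporter; luciferase reporter luminescence driven by COUP-TFII from the pX2-168 reporter plasmid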
cells [6] = type: functional, cell-based; conditions: HEK-CNG
[7] = Shn3 3'UTR reporter inhibitors, dose response, cell-based, Clone20 osteoblasts, firefly luciferase, cherry-picked (AID 624132); type: functional;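 note: firefly luciferase luminescence from reporter carrying the Shn3 3'UTR in osteoblasts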
Major prion protein = Major prion protein (Homo sapiens, UniProt P04156); type: functional, cell-based
cells [8] = assay: cells
[9] = HepG2 cell cytotoxicity, dose response, cytotoxicity control, ATP luminescence, cherry-pick, set 6 (AID 1053125); type: functional, cell-based
cells [10] = conditions: A549
[11] = Artemis endonuclease inhibitor potency, dose response, biochemical, fluorescence intensity (AID 720701); type: functional;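 note: Artemis endonuclease enzyme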
Protein Tat = Protein Tat (Human immunodeficiency virus type 1 group M subtype B (isolate HXB2)(HIV-1), UniProt P04608); type: functional;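 note: tat binding to TAR RNA read out by fluorescence polarization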
[12] = molecular target: FAD-linked sulfhydryl oxidase ALR (Homo sapiens, UniProt P55789); assay: inhibitors of human ALR sulfhydryl oxidase, dose response, biochemical, H2O2 detection, luminescence, cherry-pick (AID 493248)
[13] = molecular target: T2, Rac GTPase-activating protein 1 (Homo sapiens, UniProt Q9H0H5); assay: MgcRacGAP GTPase-activating activity inhibitors, confirmation, biochemical, ADP Hunter fluorescence, primary and confirmatory (AID 624330); type: functional
T2 sequence (Q9H0H5 whole entry): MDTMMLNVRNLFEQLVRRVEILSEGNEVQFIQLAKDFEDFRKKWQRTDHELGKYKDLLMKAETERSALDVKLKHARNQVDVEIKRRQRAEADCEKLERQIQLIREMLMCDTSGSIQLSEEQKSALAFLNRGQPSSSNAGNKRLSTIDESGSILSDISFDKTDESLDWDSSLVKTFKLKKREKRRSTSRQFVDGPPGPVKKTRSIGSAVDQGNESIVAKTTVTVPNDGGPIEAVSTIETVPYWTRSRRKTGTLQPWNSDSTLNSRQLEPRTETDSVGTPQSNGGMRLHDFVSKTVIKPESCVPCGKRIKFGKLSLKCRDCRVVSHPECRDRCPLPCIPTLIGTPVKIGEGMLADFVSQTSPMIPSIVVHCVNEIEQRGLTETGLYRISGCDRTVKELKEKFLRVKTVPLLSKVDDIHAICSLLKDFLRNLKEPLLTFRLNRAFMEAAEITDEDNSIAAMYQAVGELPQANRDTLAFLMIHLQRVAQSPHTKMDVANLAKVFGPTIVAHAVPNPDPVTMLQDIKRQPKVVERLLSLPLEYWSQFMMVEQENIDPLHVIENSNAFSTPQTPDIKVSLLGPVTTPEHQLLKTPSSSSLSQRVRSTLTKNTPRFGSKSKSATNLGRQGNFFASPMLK

[14] = molecular target: Peroxisome proliferator-activated receptor gamma/Nuclear receptor coactivator 1 (Homo sapiens, UniProt P37231); assay: TR-FRET dose response biochemical High Throughput Screening assay for agonists of the steroid receptor coactivator 1 (SRC-1) recruitment by the peroxisome proliferator-activated receptor gamma (PPAR gamma): non-selective agonists. [Related pubchem assays (depositor defined):AID1300, AID1808, AID504735, AID631]; type: protein assay
[15] = molecular target: Peroxisome proliferator-activated receptor gamma/Nuclear receptor coactivator 2 (Homo sapiens, UniProt P37231); assay: (§1) TR-FRET dose response biochemical High Throughput Screening assay for agonists of the steroid receptor coactivator 2 (SRC-2) recruitment by the peroxisome proliferator-activated receptor gamma (PPAR gamma): non-selective agonists. [Related pubchem assays: 1297, 1032 ]; type: functional
[16] = molecular target: Peroxisome proliferator-activated receptor gamma/Nuclear receptor coactivator 3 (Homo sapiens, UniProt P37231); assay: as §1, with “3 (SRC-3)” for “2 (SRC-2)”, “1301 (Confirmation screen.), 1048 (Primary screen.)]” for “1297, 1032 ]”; type: functional

NC(=O)[C@@H]1CC2(CC(c3cccc(NC(=O)CC(c4ccccc4)c4ccccc4)c3)=NO2)CN1C(=O)COc1ccc(Cl)cc1 (some centres not stated)
IC50 [1]: > 69.5 µM (inactive) | IC50 [2]: > 69.5 µM (inactive)

Cc1nn(C)c(C(=O)NCc2ccc(Cl)cc2)c1Cl
IC50 (Galanin receptor type 3): 0.158 µM (active) | IC50 (Protein Wnt-3a): 1.92 µM (active) | AC50 [3]: 6.29 µM (active) | AC50 [4]: 49.8 µM (active) | IC50 [5]: 14 µM (inactive) | EC50 (cells [6]): > 29.9 µM (inactive) | AC50 [7]: 1.74 µM (active)

CCOC(=O)N1CCN(C(=O)COc2ccc3ccccc3c2Br)CC1
IC50 (Major prion protein): 6.28 µM (active) | IC50 (cells [8]): > 138 µM (inactive)

CN(C)CCOCCOc1ccc(Cl)c2ccccc12
AC50 [9]: > 52 µM (inactive) | AC50 (cells [10]): > 52 µM (inactive)

CCOC(=O)C1CCCN(Cc2nc(N)nc(Nc3ccc(Cl)cc3)n2)C1 (configuration not stated)
IC50 [11]: > 20 µM (inactive)

CC(=O)N1CCN(c2ccc(NCc3ccc(F)cc3)cc2)CC1
IC50 (Protein Tat): > 100 µM (inconclusive) | AC50 [12]: 0.198 µM (active) | IC50 [13]: 12.9 µM (active)

CNC(=O)NC(=O)CSc1nc(-c2cccs2)c(C#N)c(=O)[nH]1
IC50 (Major prion protein): 0.876 µM (active) | EC50 [14]: > 79.4 µM (inactive) | EC50 [15]: > 79.4 µM (not active) | EC50 [16]: > 79.4 µM (not active)

CNC(=O)NC(=O)CSc1nc(O)c(C#N)c(-c2cccs2)n1
IC50 (cells [8]): > 138 µM (inactive)
